Laboratory results from publication PMC7296828 (Biochemistry, 2020).

Target: T1, Ribonuclease 6 (RNase 6, RNase K6) (Homo sapiens, UniProt Q93091)
T1 sequence (Q93091 24-150): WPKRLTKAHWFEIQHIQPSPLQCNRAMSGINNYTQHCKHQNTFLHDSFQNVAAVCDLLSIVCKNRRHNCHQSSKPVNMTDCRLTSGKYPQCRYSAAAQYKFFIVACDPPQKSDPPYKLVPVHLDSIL
Assay: X-ray crystal structure
Type: binding

- Kd: 154 ± 5 µM
Structure (SMILES): Nc1ncnc2c1ncn2[C@@H]1O[C@H](COP(=O)(O)O)[C@@H](O)[C@H]1O [5’-AMP]
